According to publication PMC7766762, “New Eudesmane-Type Sesquiterpene Glycosides from the Leaves of Aster koraiensis” (Plants, 2020):
Entries after “also recorded” stand apart in the source; their conditions may differ.

Legend:
[1] = Cell viability (MTT assay) in LPS-treated RAW 264.7 macrophages; assay type: cell-based; conditions: mouse, RAW 264.7 macrophages treated with LPS, compound 100 μM and LPS 1 μg/mL, pretreated 1 h, incubated 24 h, read-out: Cell Viabilities (%)
Experimental: [table] Cell viability and nitrite levels were measured using MTT and Griess reaction assays, respectively.

[2] = system: LPS-stimulated NO production in RAW 264.7 macrophages; experiment: LPS-induced NO production in RAW 264.7 macrophages (Griess reaction); assay type: cell-based; conditions: for IC50 / inhibition at 100 µM: Mus musculus, RAW264.7, RAW 264.7; for IC50: LPS 1 μg/mL, 24 h; for inhibition at 100 µM: compound 100 μM and LPS 1 μg/mL, pretreated 1 h, incubated 24 h, read-out: Inhibition Rate (%) NO
Experimental: (§1) All the isolates 1–9 obtained from the leaves of A. koraiensis were evaluated for their inhibitory effects of LPS-stimulated NO and PGE2 production in RAW 264.7 macrophages at non-toxic concentrations (Table 3).
(§2) Figure 5 Inhibitory effects of compound 7 on LPS-stimulated NO (A) and PGE2 productions (B) in RAW 264.7 macrophages. Cells were pretreated with different concentrations (25, 50, or 100 μM) of compound 7 for 1 h, then with LPS (1 μg/mL), and then were incubated for 24 h. l-N^6-(1-Iminoethyl)lysine (l-NIL, 10 μM) and N-[2-(cyclohexyloxy)-4-nitrophenyl]-methanesulfonamide (NS-398, 10 μM) were used as positive NO and PGE2 production inhibitors, respectively.
Cell viability and nitrite levels were measured using MTT and Griess reaction assays, respectively.

[3] = system: LPS-stimulated PGE2 production in RAW 264.7 macrophages; experiment: LPS-induced PGE2 production in RAW 264.7 macrophages (EIA kit); assay type: cell-based; conditions: for IC50 / inhibition at 100 µM: Mus musculus, RAW264.7, RAW 264.7; for IC50: LPS 1 μg/mL, 24 h; for inhibition at 100 µM: compound 100 μM and LPS 1 μg/mL, pretreated 1 h, incubated 24 h, read-out: Inhibition Rate (%) PGE2
Experimental: as §1, §2
PGE2 levels in cell culture mediums were determined using EIA kits (R&D Systems, MN) as reported in the previous paper.

[4] = LPS-stimulated RAW 264.7 cells, non-toxic concentrations

**Q.** Which results are given for `CC1=CCC(OC2OC(CO)C(O)C(O)C2O)C2(C)C(O)CC(C(C)C)C(OC3OC(CO)C(O)C(O)C3O)C12` [Compound 1, (1R,5S,6R,7S,9S,10S)-1,6,9-trihydroxy-eudesm-3-ene-1,6-di-O-β-D-glucopyranoside]?
**A.** viability at 24 h, 100 μM [1]: 102%; IC50 [2]: > 100 µM; inhibition at 100 µM [2]: 1.79%; IC50 [3]: > 100 µM; inhibition at 100 µM [3]: 0%; melting point: 167.2 °C

**Q.** For `CC1=CC[C@@H](O)[C@@]2(C)[C@H]1[C@H](O[C@@H]1O[C@H](CO)[C@@H](O)[C@H](O)[C@H]1O)[C@H](C(C)(C)O)C[C@@H]2O` [Compound 4, (1R,5S,6S,7R,9S,10R)-1,6,9,11-tetrahydroxy-eudesm-3-ene-6-O-β-D-glucopyranoside], which viability at 24 h, 100 μM [1] is on record?
**A.** The viability at 24 h, 100 μM was 102%.

**Q.** What about the IC50 [2] of the same molecule?
**A.** Its IC50 is greater than 100 µM.

**Q.** And the inhibition at 100 µM [2]?
**A.** The inhibition at 100 µM was 1.31%.

**Q.** And the IC50 [3]?
**A.** Its IC50 is greater than 100 µM.

**Q.** And the inhibition at 100 µM [3]?
**A.** Its inhibition at 100 µM is 6.15%.

**Q.** Which results are given for `CC1=CC[C@@H](O)[C@]2(C)[C@@H](OC(=O)/C=C/c3ccc(O)cc3)C[C@@H](C(C)C)[C@@H](O[C@@H]3O[C@H](CO)[C@@H](O)[C@H](O)[C@H]3O)[C@@H]12` [Compound 5, (1R,5S,6R,7S,9S,10R)-9-O-(E-p-coumaroyl)-1,6,9-trihydroxy-eudesm-3-ene-6-O-β-D-glucopyranoside]?
**A.** viability at 24 h, 100 μM [1]: 104%; IC50 [2]: > 100 µM; inhibition at 100 µM [2]: 8.39%; IC50 [3]: > 100 µM; inhibition at 100 µM [3]: 0%

**Q.** With `O=C(/C=C/c1ccc(O)c(O)c1)O[C@@H]1C[C@](O)(C(=O)O)C[C@@H](OC(=O)/C=C/c2ccc(O)c(O)c2)[C@H]1O` [Compound 8, 3,5-dicaffeoylquinic acid] as the molecule, how does the viability at 24 h, 100 μM [1] read?
**A.** Its viability at 24 h, 100 μM is 93.4%.

**Q.** What about the IC50 [2] of the same molecule?
**A.** Its IC50 is greater than 100 µM.

**Q.** What about the inhibition at 100 µM [2] of the same molecule?
**A.** The inhibition at 100 µM was 6.25%.

**Q.** What about the IC50 [3] of the same molecule?
**A.** The IC50 was greater than 100 µM.

**Q.** And the inhibition at 100 µM [3]?
**A.** The inhibition at 100 µM was 1.27%.

**Q.** For `CC1=CCC(OC2OC(CO)C(O)C(O)C2O)C2(C)C(O)CC(C(C)(C)O)C(OC3OC(CO)C(O)C(O)C3O)C12` [Compound 3, (1R,5S,6S,7R,9S,10S)-1,6,9,11-tetrahydroxy-eudesm-3-ene-1,6-di-O-β-D-glucopyranoside], which viability at 24 h, 100 μM [1] is on record?
**A.** The viability at 24 h, 100 μM was 94%.

**Q.** What about the IC50 [2] of the same molecule?
**A.** The IC50 was greater than 100 µM.

**Q.** What about the inhibition at 100 µM [2] of the same molecule?
**A.** Its inhibition at 100 µM is 4.66%.

**Q.** And the IC50 [3]?
**A.** Its IC50 is greater than 100 µM.

**Q.** What about the inhibition at 100 µM [3] of the same molecule?
**A.** The inhibition at 100 µM was 10.5%.

**Q.** What about the melting point of the same molecule?
**A.** The melting point was 230 °C.

**Q.** With `O=C(/C=C/c1ccc(O)c(O)c1)O[C@@H]1[C@H](O)C[C@@](O)(C(=O)O)C[C@H]1OC(=O)/C=C/c1ccc(O)c(O)c1` [Compound 9, 4,5-dicaffeoylquinic acid] as the molecule, how does the viability at 24 h, 100 μM [1] read?
**A.** The viability at 24 h, 100 μM was 100%.

**Q.** And the IC50 [2]?
**A.** Its IC50 is greater than 100 µM.

**Q.** And the inhibition at 100 µM [2]?
**A.** Its inhibition at 100 µM is 4.64%.

**Q.** What about the IC50 [3] of the same molecule?
**A.** Its IC50 is greater than 100 µM.

**Q.** What about the inhibition at 100 µM [3] of the same molecule?
**A.** The inhibition at 100 µM was 20.4%.

**Q.** With `CC1=CC[C@@H](O)[C@@]2(C)[C@H]1[C@H](O[C@@H]1O[C@H](CO)[C@@H](O)[C@H](O)[C@H]1O)[C@H](C(C)C)C[C@@H]2O` [Compound 2, (1R,5S,6R,7S,9S,10R)-1,6,9-trihydroxy-eudesm-3-ene-6-O-β-D-glucopyranoside] as the molecule, how does the viability at 24 h, 100 μM [1] read?
**A.** The viability at 24 h, 100 μM was 105%.

**Q.** And the IC50 [2]?
**A.** The IC50 was greater than 100 µM.

**Q.** What about the inhibition at 100 µM [2] of the same molecule?
**A.** The inhibition at 100 µM was 3.2%.

**Q.** What about the IC50 [3] of the same molecule?
**A.** Its IC50 is greater than 100 µM.

**Q.** What about the inhibition at 100 µM [3] of the same molecule?
**A.** Its inhibition at 100 µM is 0%.

**Q.** For `COc1cc(/C=C/C(=O)O[C@H]2C[C@@H](C(C)C)[C@@H](O[C@@H]3O[C@H](CO)[C@@H](O)[C@H](O)[C@H]3O)[C@H]3C(C)=CC[C@@H](O)[C@]23C)ccc1O` [Compound 7, (1R,5S,6R,7S,9S,10R)-9-O-(E-feruloyl)-1,6,9-trihydroxy-eudesm-3-ene-6-O-β-D-glucopyranoside], which viability at 24 h, 100 μM [1] is on record?
**A.** Its viability at 24 h, 100 μM is 89.3%.

**Q.** What about the “Inhibitory effect on NO production (in words)” value [2, 4] of the same molecule?
**A.** Its value is “weak inhibitory effects; also recorded: weak inhibitory activities”.

**Q.** What about the IC50 [2] of the same molecule?
**A.** The IC50 was 95.7 µM.

**Q.** What about the inhibition at 100 µM [2] of the same molecule?
**A.** Its inhibition at 100 µM is 53.1%.

**Q.** What about the “Inhibitory effect on PGE2 production (in words)” value [3, 4] of the same molecule?
**A.** Its value is “weak inhibitory effects; also recorded: weak inhibitory activities”.

**Q.** What about the IC50 [3] of the same molecule?
**A.** Its IC50 is greater than 100 µM.

**Q.** What about the inhibition at 100 µM [3] of the same molecule?
**A.** The inhibition at 100 µM was 41.3%.

**Q.** Which viability at 24 h, 100 μM [1] does the source give for `CC1=CC[C@@H](O)[C@]2(C)[C@@H](OC(=O)/C=C\c3ccc(O)cc3)C[C@@H](C(C)C)[C@@H](O[C@@H]3O[C@H](CO)[C@@H](O)[C@H](O)[C@H]3O)[C@@H]12` [Compound 6, (1R,5S,6R,7S,9S,10R)-9-O-(Z-p-coumaroyl)-1,6,9-trihydroxy-eudesm-3-ene-6-O-β-D-glucopyranoside] here?
**A.** The viability at 24 h, 100 μM was 108%.

**Q.** What about the IC50 [2] of the same molecule?
**A.** The IC50 was greater than 100 µM.

**Q.** What about the inhibition at 100 µM [2] of the same molecule?
**A.** The inhibition at 100 µM was 7.01%.

**Q.** And the IC50 [3]?
**A.** Its IC50 is greater than 100 µM.

**Q.** What about the inhibition at 100 µM [3] of the same molecule?
**A.** Its inhibition at 100 µM is 2.16%.
